Assay [1] deals with T1, vcDHQD (type II DHQD) (Vibrio cholerae, UniProt Q9KV60).
T1 sequence (Q9KV60 1-150): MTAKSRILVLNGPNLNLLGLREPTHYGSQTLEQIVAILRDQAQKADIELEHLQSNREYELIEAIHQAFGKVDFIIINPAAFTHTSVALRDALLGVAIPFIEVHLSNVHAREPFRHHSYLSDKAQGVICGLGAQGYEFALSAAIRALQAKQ
The assay can be described thus: vcDHQD inhibition, DHQD panel. Type of assay: biochemical.

The target of assay [2] is ypDHQD (type II DHQD) (Yersinia pestis, UniProt Q8ZAX1). The assay can be described thus: biochemical.
For assay [3], the target named is T2, cdDHQD (Clostridioides difficile, UniProt Q186A6). The experiment in a line: biochemical. Details: species or system Clostridium difficile.
Assay [4] has as its target T3, seDHQD (Salmonella typhimurium, UniProt P58687). The experiment in a line: NMR line broadening with seDHQD. Type of assay: binding, Salmonella enterica. To be noted: similar compound concentrations; 10 µM DHQD, 100 µM compound. An excerpt: Supplementary Figure S2. NMR data for binding of compounds 1 and 2 to cdDHQD. (A) Line broadening observed for compound 1 upon addition of cdDHQD or seDHQD. (B) Line broadening observed for compound 2 upon addition of cdDHQD or seDHQD. […] Line widths were estimated using NMRDraw (Delaglio et al., 1995).

In assay [5] the target is T2, cdDHQD. To be noted: 10 µM DHQD, 100 µM compound.
The target in assay [6] is T2, cdDHQD. The experiment in a line: biochemical.
Assay [7] deals with T4, btDHQD (type II DHQD) (Bacteroides thetaiotaomicron, UniProt Q8A3W2).
T4 sequence (Q8A3W2 1-140): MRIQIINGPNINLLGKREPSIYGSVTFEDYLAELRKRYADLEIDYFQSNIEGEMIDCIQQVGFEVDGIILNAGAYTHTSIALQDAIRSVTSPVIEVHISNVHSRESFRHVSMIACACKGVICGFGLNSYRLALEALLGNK
The assay can be described thus: btDHQD inhibition, primary screen DHQD assay.

In assay [8] the target is T2, cdDHQD. The experiment in a line: biochemical. The settings on record: Kd for binding to cdDHQD (WaterLOGSY), NMR titration; PBS pH 7.2, 25°C.
In assay [9] the target is T3, seDHQD. The assay can be described thus: WaterLOGSY NMR titration with seDHQD. The settings on record: Kd for binding to seDHQD (WaterLOGSY), PBS pH 7.2, 25°C.
Setting [10] is: type II DHQD, read-out: IC50 vcDHQD.
[11] abbreviates: Kd for binding to cdDHQD (line broadening, double reciprocal plot), NMR, PBS pH 7.2, 25°C.
Setting [12] is: Kd for binding to cdDHQD, fit of single resonances, NMR titration, two different resonances per compound (Figure 3A, 3B).
[13] abbreviates: 200 µM compound, substrate up to 5 mM.

By IC50 is commonly meant the concentration that inhibits the measured activity by half. Broadly, the Ki is a measure of affinity in units of concentration, obtained from inhibition or displacement. A high value points to weaker binding. By Kd is commonly meant the concentration at which binding is half-saturated. High values mean a looser complex, low ones a tighter complex.

Where “and” joins values, the source holds several entries; their conditions need not be identical. Equal values may be shown once. Read-outs that look alike come from different tables or passages of the source. A value given as a limit tells only on which side of the number the result lay.

T2 sequence (Q186A6 whole entry): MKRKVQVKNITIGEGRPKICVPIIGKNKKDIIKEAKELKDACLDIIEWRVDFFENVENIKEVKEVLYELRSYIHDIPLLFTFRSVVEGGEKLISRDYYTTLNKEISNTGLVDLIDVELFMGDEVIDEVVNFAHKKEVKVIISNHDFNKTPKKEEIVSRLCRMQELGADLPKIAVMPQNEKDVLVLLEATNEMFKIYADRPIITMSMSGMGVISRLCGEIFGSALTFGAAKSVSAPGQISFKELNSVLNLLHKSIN
T3 sequence (P58687 whole entry): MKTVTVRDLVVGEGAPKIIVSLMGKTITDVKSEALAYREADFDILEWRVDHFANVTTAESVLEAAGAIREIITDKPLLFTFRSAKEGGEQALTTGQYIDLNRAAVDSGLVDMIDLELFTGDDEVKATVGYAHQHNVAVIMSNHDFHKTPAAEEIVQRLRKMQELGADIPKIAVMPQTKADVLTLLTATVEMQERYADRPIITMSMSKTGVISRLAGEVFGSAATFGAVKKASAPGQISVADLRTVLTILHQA
Sequence of ypDHQD (type II DHQD) (Q8ZAX1 whole entry, looked up): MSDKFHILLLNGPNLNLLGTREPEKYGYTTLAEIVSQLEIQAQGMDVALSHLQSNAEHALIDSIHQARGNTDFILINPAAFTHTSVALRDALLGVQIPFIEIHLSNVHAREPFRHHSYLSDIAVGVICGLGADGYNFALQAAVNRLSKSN

In the case of `O=S(=O)(Nc1nc(-c2ccccc2)cs1)c1cc(Cl)ccc1Cl` [Compound 1], the IC50 in assay [1] (setting [10]), in assay [2] and in assay [7] was more than 200 µM throughout. This compound had a Ki in assay [3] of 11 to 15 µM. Further, the “line broadening of compound resonances with seDHQD” value in assay [4] was less than 1 Hz. For the same compound, in assay [5], the “line broadening of compound resonances with cdDHQD” value is more than 6 Hz. Further, the Kd in assay [6] (setting [11]) is ~27 µM and ~25 µM; in [6] (setting [12]), 35 µM and 18 µM.

For the compound `COc1ccc2nc(NS(=O)(=O)c3cc(Cl)ccc3Cl)sc2c1` [Compound 2], the IC50 in assay [1], in assay [2] and in assay [7] was more than 200 µM throughout. Also, the “line broadening of compound resonances with seDHQD” value in [4] is on record as less than 1 Hz. The “line broadening of compound resonances with cdDHQD” value in assay [5] was more than 6 Hz. For the same compound, the Kd in assay [6] (setting [11]) is approximately 25 µM; in assay [6] (setting [12]) it was 15 µM and 34 µM.

Regarding `O=C(O)c1ccccc1NC(=O)c1csc2c1CCCC2` [Compound 3], the half-inhibitory concentration (IC50) in [1] (setting [10]), in assay [2] and in [7] was more than 200 µM in each case. Moreover, the Ki in assay [3] lay within 19 to 22 µM. For the same compound, the “Vmax in presence of inhibitor” value in assay [3] (setting [13]) is listed as “unchanged”. Moreover, the “increase of apparent Km” value in assay [3] (setting [13]) was 10 fold. The mechanism of inhibition result in assay [3] (from Km/Vmax at high substrate) is listed as “competitive”. For the same compound, the Kd in assay [8] was ~65 µM and 67 µM; in assay [9] it was ~400 µM and ~390 µM.

The values above are taken from publication PMC3931744, “Discovery of Selective Inhibitors of the Clostridium difficile Dehydroquinate Dehydratase” (PLoS ONE, 2014).
